The text below walks through data of patent US20100256133A1, “NOVEL COMPOUNDS HAVING INDAZOLE FRAMEWORKS, METHODS FOR PREPARING THE SAME AND PHARMACEUTICAL COMPOSITION COMPRISING THE SAME” (priority 2007, published 2010).

The target in one experiment is T1, GSK3β (Homo sapiens, UniProt P49841).
T1 construct: made in house; host or cells: Sf21 insect cells
T1 sequence (P49841 whole entry): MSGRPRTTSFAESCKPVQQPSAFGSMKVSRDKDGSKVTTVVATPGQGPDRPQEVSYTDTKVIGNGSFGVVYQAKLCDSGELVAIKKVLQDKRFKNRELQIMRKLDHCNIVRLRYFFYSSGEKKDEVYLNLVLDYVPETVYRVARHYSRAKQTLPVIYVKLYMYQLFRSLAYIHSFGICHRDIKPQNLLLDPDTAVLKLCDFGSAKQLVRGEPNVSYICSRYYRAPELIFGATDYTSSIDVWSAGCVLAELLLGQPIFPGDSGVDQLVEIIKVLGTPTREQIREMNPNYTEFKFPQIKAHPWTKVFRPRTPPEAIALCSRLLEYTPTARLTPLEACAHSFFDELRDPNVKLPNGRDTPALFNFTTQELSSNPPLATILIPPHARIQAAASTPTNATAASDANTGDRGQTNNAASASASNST
Nature of the experiment: Assay for inhibitory activity against GSK3β (Kinase-Glo luminescence). Type of experiment: biochemical. To be noted: 750 nM ATP, 4 μM GSY-2 phosphopeptide. As to the method:
The compounds of the present invention were assayed for inhibitory activity against GSK3β. The GSK-3 is implicated in the incidence of various diseases including diabetes, Alzheimer's disease, CNS disorders and hypertrophic cardiomyopathy.
GSK3β was purified from Sf21 cells using a procedure described in the literature, R. Dajani et. al. (Cell 2001, […], 721-732). GSK3β activity was examined at room temperature in 50 μl of 40 mM Tris-HCl, pH7.4, 10 mM MgCl2, 1 mM DTT, 0.2 mM EDTA, 200 μM NaVO3, 10 mM β-glyceralphosphate, 1 mM EGTA buffer containing 750 nM ATP and 4 μM GSY-2 phosphopeptide (substrate). After incubation at room temperature for […], Kinase-Glo reagent (Promega) was added to reaction mixtures of Preparation Examples 1-1 to 1-12, 1-80 to 1-90, and 1-92. The well plates were incubated at room temperature for […] to stabilize luminescent signals. The luminescent intensity, reflecting the quantity of ATP, was recorded using a counter (Wallac Victor 1420 multilabel counter) and used to determine % inhibition of GSK3β as compared to ATP level in the control to which none of the compounds of the present invention were added.
For orientation: Kinase-Glo reads ATP consumption through a luciferase reaction.
In general, IC50 refers to the midpoint of a concentration-inhibition curve. A higher IC50 goes with weaker potency in that assay. The compound `O=C(Nc1n[nH]c2nc(-c3cnn4ccccc34)c(F)cc12)C1CC1` [Example 1-1] returned an IC50 of 10.2 µM.

On to `O=C(Cc1ccc(F)cc1)Nc1n[nH]c2nc(-c3cnn4ccccc34)c(F)cc12` [Example 1-10], for which half-maximal inhibition (IC50) was put at 14.4 µM.

As for `O=C(Nc1n[nH]c2nc(-c3cnn4ccccc34)c(F)cc12)C1CCCC1` [Example 1-2], the midpoint of inhibition, the IC50, lay at 14.9 µM.

`COc1ccn2ncc(-c3nc4[nH]nc(NC(=O)Cc5ccc(F)cc5)c4cc3F)c2c1` [Example 1-9] had an IC50 of 20 µM.

Consider `CC(=O)OCCn1nc(NC(=O)C2CCCC2)c2cc(F)c(-c3cnn4ccccc34)nc21` [Example 1-85], for which the IC50 is 34.9 µM.

`Cc1cccc2c(-c3nc4[nH]nc(NC(=O)c5ccc(N(C)C)cc5)c4cc3F)cnn12` [Example 1-7] had an IC50 of 13.3 µM.

The same experiment, now with this note: compound at 25 μM; 750 nM ATP, 4 μM GSY-2 phosphopeptide; vs control without compound.
In general, inhibition refers to the drop in the measured response relative to a control, in per cent. Take `CC(=O)OCCn1nc(NC(=O)c2ccccc2)c2cc(F)c(-c3cnn4ccccc34)nc21` [Example 1-88]: the inhibition at 25 µM was 23%.

For `Nc1n[nH]c2nc(-c3cnn4ccccc34)c(F)cc12` [Example 1-11], the inhibition at 25 µM came out at 30%.

For `O=C(Nc1n[nH]c2nc(-c3cnn4ccccc34)c(F)cc12)C1CC1` [Example 1-1], the inhibition at 25 µM was 80.8%.

Regarding `O=C(Cc1ccc(F)cc1)Nc1n[nH]c2nc(-c3cnn4ccccc34)c(F)cc12` [Example 1-10], the inhibition at 25 µM is 77.4%.

For the compound `O=C(Nc1nn(CCO)c2nc(-c3cnn4ccccc34)c(F)cc12)c1ccccc1` [Example 1-89], the inhibition at 25 µM came out at 1.5%.

Turning to `CC(=O)OCCn1nc(NC(=O)C2CC2)c2cc(F)c(-c3cnn4ccccc34)nc21` [Example 1-84], the inhibition at 25 µM is 24.4%.

Consider `COc1ccn2ncc(-c3nc4c(cc3F)c(NC(=O)c3ccccc3)nn4CCO)c2c1` [Example 1-92], for which the inhibition at 25 µM was found to be 117%.

As to `Cc1cccc2c(-c3nc4c(cc3F)c(NC(=O)c3ccc(F)cc3)nn4C(=O)c3ccc(F)cc3)cnn12` [Example 1-93], the inhibition at 25 µM amounted to 51.6%.

As for `O=C(Nc1n[nH]c2nc(-c3cnn4ccccc34)c(F)cc12)C1CCCC1` [Example 1-2], the inhibition at 25 µM came to 76.9%.

Turning to `COc1ccn2ncc(-c3nc4[nH]nc(NC(=O)C5CC5)c4cc3F)c2c1` [Example 1-8], the inhibition at 25 µM is 37.7%.

Regarding `COc1ccn2ncc(-c3nc4[nH]nc(N)c4cc3F)c2c1` [Example 1-12], the inhibition at 25 µM stood at 87.7%.

Turning to `COc1ccn2ncc(-c3nc4[nH]nc(NC(=O)Cc5ccc(F)cc5)c4cc3F)c2c1` [Example 1-9], the inhibition at 25 µM was 58.2%.

`CC(=O)OCCn1nc(NC(=O)c2ccc(F)cc2)c2cc(F)c(-c3cnn4c(C)cccc34)nc21` [Example 1-81]: the inhibition at 25 µM worked out at 81.9%.

As for `CC(=O)OCCn1nc(N)c2cc(F)c(-c3cnn4c(C)cccc34)nc21` [Example 1-80], the inhibition at 25 µM turned out to be 19.7%.

With `O=C(Nc1nn(C(=O)C2CCCC2)c2nc(-c3cnn4ccccc34)c(F)cc12)C1CCCC1` [Example 1-94], the inhibition at 25 µM is 41.7%.

In the case of `CC(=O)OCCn1nc(NC(=O)C2CCCC2)c2cc(F)c(-c3cnn4ccccc34)nc21` [Example 1-85], the inhibition at 25 µM worked out at 68.6%.

As to `Cc1cccc2c(-c3nc4[nH]nc(NC(=O)C5CCCC5)c4cc3F)cnn12` [Example 1-4], the inhibition at 25 µM was found to be 63.8%.

`Cc1cccc2c(-c3nc4[nH]nc(NC(=O)C5CC5)c4cc3F)cnn12` [Example 1-3]: the inhibition at 25 µM came to 11.6%.

Regarding `CC(=O)OCCn1nc(N)c2cc(F)c(-c3cnn4ccccc34)nc21` [Example 1-82], the inhibition at 25 µM stood at 64.5%.

For the compound `Cc1cccc2c(-c3nc4[nH]nc(NC(=O)c5cccc(C#N)c5)c4cc3F)cnn12` [Example 1-5], the inhibition at 25 µM stood at 35.1%.

For the compound `Cc1cccc2c(-c3nc4[nH]nc(NC(=O)c5ccc(N(C)C)cc5)c4cc3F)cnn12` [Example 1-7], the inhibition at 25 µM worked out at 71.2%.

With `Cc1cccc2c(-c3nc4[nH]nc(NC(=O)Cc5ccc(F)cc5)c4cc3F)cnn12` [Example 1-6], the inhibition at 25 µM was 48.3%.

In the case of `CC(=O)OCCn1nc(NC(=O)Cc2ccc(F)cc2)c2cc(F)c(-c3cnn4ccccc34)nc21` [Example 1-95], the inhibition at 25 µM came to 53.2%.

As for `COc1ccn2ncc(-c3nc4c(cc3F)c(N)nn4CCOC(C)=O)c2c1` [Example 1-83], the inhibition at 25 µM is 81.2%.

Turning to `Nc1nn(CCO)c2nc(-c3cnn4ccccc34)c(F)cc12` [Example 1-87], the inhibition at 25 µM was determined as 26.7%.

`COc1ccn2ncc(-c3nc4c(cc3F)c(N)nn4CCO)c2c1` [Example 1-90]: the inhibition at 25 µM came to 116%.

Take `O=C(Cc1ccc(F)cc1)Nc1nn(CCO)c2nc(-c3cnn4ccccc34)c(F)cc12` [Example 1-86]: the inhibition at 25 µM was determined as 47.9%.

Still in this experiment, the particulars now being: compound at 50 μM; 750 nM ATP, 4 μM GSY-2 phosphopeptide; vs control without compound.
Regarding `O=C(Nc1n[nH]c2nc(-c3cnn4ccccc34)c(F)cc12)C1CC1` [Example 1-1], the inhibition at 50 µM stood at 96.3%.

`O=C(Cc1ccc(F)cc1)Nc1n[nH]c2nc(-c3cnn4ccccc34)c(F)cc12` [Example 1-10]: the inhibition at 50 µM came out at 90.7%.

For the compound `CC(=O)OCCn1nc(NC(=O)C2CC2)c2cc(F)c(-c3cnn4ccccc34)nc21` [Example 1-84], the inhibition at 50 µM was 49.5%.

Regarding `Cc1cccc2c(-c3nc4c(cc3F)c(NC(=O)c3ccc(F)cc3)nn4C(=O)c3ccc(F)cc3)cnn12` [Example 1-93], the inhibition at 50 µM worked out at 88.6%.

For `O=C(Nc1n[nH]c2nc(-c3cnn4ccccc34)c(F)cc12)C1CCCC1` [Example 1-2], the inhibition at 50 µM stood at 95.3%.

Regarding `COc1ccn2ncc(-c3nc4[nH]nc(NC(=O)C5CC5)c4cc3F)c2c1` [Example 1-8], the inhibition at 50 µM was found to be 61.6%.

In the case of `COc1ccn2ncc(-c3nc4[nH]nc(NC(=O)Cc5ccc(F)cc5)c4cc3F)c2c1` [Example 1-9], the inhibition at 50 µM was found to be 94.6%.

With `CC(=O)OCCn1nc(NC(=O)c2ccc(F)cc2)c2cc(F)c(-c3cnn4c(C)cccc34)nc21` [Example 1-81], the inhibition at 50 µM was 97.5%.

`CC(=O)OCCn1nc(N)c2cc(F)c(-c3cnn4c(C)cccc34)nc21` [Example 1-80]: the inhibition at 50 µM came out at 37.8%.

`O=C(Nc1nn(C(=O)C2CCCC2)c2nc(-c3cnn4ccccc34)c(F)cc12)C1CCCC1` [Example 1-94]: the inhibition at 50 µM amounted to 87.2%.

For `CC(=O)OCCn1nc(NC(=O)C2CCCC2)c2cc(F)c(-c3cnn4ccccc34)nc21` [Example 1-85], the inhibition at 50 µM turned out to be 90.1%.

For the compound `Cc1cccc2c(-c3nc4[nH]nc(NC(=O)C5CCCC5)c4cc3F)cnn12` [Example 1-4], the inhibition at 50 µM is 82.1%.

As to `Cc1cccc2c(-c3nc4[nH]nc(NC(=O)C5CC5)c4cc3F)cnn12` [Example 1-3], the inhibition at 50 µM turned out to be 53.1%.

As to `CC(=O)OCCn1nc(N)c2cc(F)c(-c3cnn4ccccc34)nc21` [Example 1-82], the inhibition at 50 µM turned out to be 80.4%.

As to `Cc1cccc2c(-c3nc4[nH]nc(NC(=O)c5cccc(C#N)c5)c4cc3F)cnn12` [Example 1-5], the inhibition at 50 µM was found to be 78%.

For the compound `Cc1cccc2c(-c3nc4[nH]nc(NC(=O)c5ccc(N(C)C)cc5)c4cc3F)cnn12` [Example 1-7], the inhibition at 50 µM amounted to 92.3%.

On to `Cc1cccc2c(-c3nc4[nH]nc(NC(=O)Cc5ccc(F)cc5)c4cc3F)cnn12` [Example 1-6], for which the inhibition at 50 µM came to 70.8%.

For `CC(=O)OCCn1nc(NC(=O)Cc2ccc(F)cc2)c2cc(F)c(-c3cnn4ccccc34)nc21` [Example 1-95], the inhibition at 50 µM amounted to 78.9%.

With `COc1ccn2ncc(-c3nc4c(cc3F)c(N)nn4CCOC(C)=O)c2c1` [Example 1-83], the inhibition at 50 µM was determined as 87.2%.

Consider `O=C(Cc1ccc(F)cc1)Nc1nn(CCO)c2nc(-c3cnn4ccccc34)c(F)cc12` [Example 1-86], for which the inhibition at 50 µM turned out to be 86.5%.
